Results from patent US20120122780A1 (Ardea Biosciences Inc., priority 2009, published 2012).

The compounds below were run against T1, hURAT1 Transporter (Homo sapiens, UniProt Q96S37) (assay: Uric Acid Uptake Assay (URAT-1 EC50)). Settings: HEK293/urat1 cells, C14 uric acid 40 μM, 10 minutes at room temperature.
T1 construct: Full-length human URAT1 gene (SLC22Al2) was subcloned from plasmid pCMV6-XL5 (Origene) into eukaryotic expression plasmid pCMV6/Neo; expressed in transfected cells
T1 sequence (Q96S37 1-553): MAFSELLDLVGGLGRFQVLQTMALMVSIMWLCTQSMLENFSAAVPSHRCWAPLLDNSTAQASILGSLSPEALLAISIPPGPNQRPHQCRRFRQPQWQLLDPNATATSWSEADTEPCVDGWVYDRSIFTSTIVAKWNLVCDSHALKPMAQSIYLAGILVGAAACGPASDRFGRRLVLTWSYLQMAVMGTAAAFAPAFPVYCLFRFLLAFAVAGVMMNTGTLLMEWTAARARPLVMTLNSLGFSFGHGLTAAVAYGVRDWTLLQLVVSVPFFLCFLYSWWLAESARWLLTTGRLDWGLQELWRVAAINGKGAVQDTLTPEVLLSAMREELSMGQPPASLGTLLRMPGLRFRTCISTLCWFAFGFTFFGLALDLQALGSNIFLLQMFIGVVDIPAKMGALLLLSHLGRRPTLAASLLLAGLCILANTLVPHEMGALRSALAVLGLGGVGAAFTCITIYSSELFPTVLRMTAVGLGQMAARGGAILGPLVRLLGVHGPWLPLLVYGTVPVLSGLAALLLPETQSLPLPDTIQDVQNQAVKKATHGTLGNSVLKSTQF
Assay type: cell-based
Description: Creation of Stable Cell Lines Expressing hURAT1 Transporter: Full-length human URAT1 gene (SLC22Al2) was subcloned from plasmid pCMV6-XL5 (Origene) into eukaryotic expression plasmid pCMV6/Neo (Origene) using Not I restriction sites. Gene sequencing confirmed the sequence of hURAT1 as outlined in Genbank (Accession #NM_144585.2). HEK293 human embryonic kidney cells (ATCC# CRL-1573) were propagated in EMEM tissue culture medium as described by ATCC in an atmosphere of 5% CO2 and 95% air. Transfections of HEK293 cells with the pCMV6/Neo/URAT1 construct were performed using L2000 transfection reagent (Invitrogen) as described by the manufacturer. After 24 h the transfected cells were split into 10 cm tissue culture plates and grown for 1 day after which the medium was replaced with fresh growth medium containing G418 (Gibco) at 0.5 mg/ml final concentration. Drug-resistant colonies were selected after approximately 8 days and then tested for ^14C-uric acid transport activity. The HEK293/urat1 cells are plated on Poly-D-Lysine Coated 96-well Plates at a density of 75,000 cells per well. Cells were grown overnight (20-26 hours) at 37° C. in an incubator. Plates were allowed to come to room temperature and media was washed out with one wash of 250 μl of Wash Buffer (125 mM Na Gluconate, 10 mM Hepes ph 7.3). Compound or vehicle is added in assay buffer with C14 Uric Acid for a final concentration of 40 μM Uric Acid with a specific activity of 54 mCi/mmol Assay Buffer is 125 mM Sodium Gluconate, 4.8 mM Potassium Gluconate, 1.2 mM Potassium phosphate, monobasic, 1.2 mM magnesium sulfate, 1.3 mM Ca Gluconate, 5.6 mM Glucose, 25 mM HEPES, pH 7.3. Plates were incubated at room temperature for 10 minutes then washed 3 times with 50 μWash Buffer and 3 times with 250 μl Wash Buffer. Microscint 20 Scintillation Fluid was added and plates were incubated overnight at 45° C. to equilibrate. Plates are then read on the TopCount Plate Reader and an EC50 value generated. (See Enomoto et al, Nature, 2002, 417, 447-451 and Anzai et al, J. Biol. Chem., 2004, 279, 45942-45950.)
Compounds prepared as described above, were examined according to the procedure described herein and EC50 values generated. The table below summarizes the activity of the compounds in the Uric Acid Uptake Assay, wherein

EC50 [µM]	SMILES
> 20	O=C(O)CSc1cnnn1-c1cccc2ccccc12 [Example 5A-1]
5 to 20	CCOC(=O)CSc1nnnn1-c1cccc2ccccc12 [6-1 (step C), Ethyl 2-(1-(naphthalen-1-yl)-1H-tetrazol-5-ylthio) acetate]
> 20	CC(C)(Oc1nnnn1-c1cccc2ccccc12)C(=O)O [Example 6-3]
> 20	O=C(O)CSc1nnnn1-c1cccc2ccccc12 [6-1 (step D), 2-(1-(naphthalen-1-yl)-1H-tetrazol-5-ylthio)acetic acid]
